Results from the supplement of paper PMC10307832.

How the values were obtained:
Assay in all cases: relative viability (nuclei count vs DMSO), 5 days (fraction); higher = more cells survive
A-427 = tested on: A-427
Summary of the method: (§1)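 Lung cancer cell lines, seeded in 1536-well plates, were treated the following day by pin tool with a single drug or with five library-drug doses (not always all listed) in √10 steps on top of a fixed anchor-drug dose. Cells were fixed and nuclei stained in one step after 5 days, and nuclei were counted. Relative viability is the nuclei count for treated wells divided by that for vehicle wells, reported as medians of duplicate plates.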

BEN = tested on: BEN
Summary of the method: as §1

HARA = tested on: HARA
Summary of the method: as §1

LCLC-97TM1 = tested on: LCLC-97TM1
Summary of the method: as §1

LOU-NH91 = tested on: LOU-NH91
Summary of the method: as §1

LU99A = tested on: LU99A
Summary of the method: as §1

LXF-289 = tested on: LXF-289
Summary of the method: as §1

NCI-H1395 = tested on: NCI-H1395
Summary of the method: as §1

NCI-H1666 = tested on: NCI-H1666
Summary of the method: as §1

NCI-H1755 = tested on: NCI-H1755
Summary of the method: as §1

NCI-H1793 = tested on: NCI-H1793
Summary of the method: as §1

NCI-H1915 = tested on: NCI-H1915
Summary of the method: as §1

NCI-H1944 = tested on: NCI-H1944
Summary of the method: as §1

NCI-H2023 = tested on: NCI-H2023
Summary of the method: as §1

NCI-H2126 = tested on: NCI-H2126
Summary of the method: as §1

NCI-H2170 = tested on: NCI-H2170
Summary of the method: as §1

NCI-H23 = tested on: NCI-H23
Summary of the method: as §1

NCI-H322M = tested on: NCI-H322M
Summary of the method: as §1

NCI-H441 = tested on: NCI-H441
Summary of the method: as §1

NCI-H460 = tested on: NCI-H460
Summary of the method: as §1

NCI-H650 = tested on: NCI-H650
Summary of the method: as §1

PC-3 [JPC-3] = tested on: PC-3 [JPC-3]
Summary of the method: as §1

SK-LU-1 = tested on: SK-LU-1
Summary of the method: as §1

`Cc1cnc(-c2cnc(NCCNc3ccc(C#N)cn3)nc2-c2ccc(Cl)cc2Cl)[nH]1` + CC(=O)c1c(C)c2cnc(Nc3ccc(N4CCNCC4)cn3)nc2n(C2CCCC2)c1=O [Palbociclib] (partner 0.5 µM) was tested. Which relative viability (A-427; first compound 0.08 µM) did it give?
Its relative viability is 0.537.

And the relative viability (A-427; first compound 0.253 µM)?
The relative viability was 0.539.

What about the relative viability (A-427; first compound 0.8 µM) of the same compound?
The relative viability was 0.567.

What about the relative viability (A-427; first compound 2.53 µM) of the same compound?
The relative viability was 0.563.

And the relative viability (BEN; first compound 0.08 µM)?
Its relative viability is 0.495.

What about the relative viability (BEN; first compound 0.253 µM) of the same compound?
The relative viability was 0.506.

What about the relative viability (BEN; first compound 0.8 µM) of the same compound?
The relative viability was 0.687.

What about the relative viability (BEN; first compound 2.53 µM) of the same compound?
Its relative viability is 0.545.

And the relative viability (HARA; first compound 0.08 µM)?
Its relative viability is 0.296.

And the relative viability (HARA; first compound 0.253 µM)?
The relative viability was 0.288.

And the relative viability (HARA; first compound 0.8 µM)?
Its relative viability is 0.262.

What about the relative viability (HARA; first compound 2.53 µM) of the same compound?
Its relative viability is 0.241.

What about the relative viability (LCLC-97TM1; first compound 0.08 µM) of the same compound?
Its relative viability is 0.282.

And the relative viability (LCLC-97TM1; first compound 0.253 µM)?
The relative viability was 0.17.

And the relative viability (LCLC-97TM1; first compound 0.8 µM)?
Its relative viability is 0.215.

And the relative viability (LCLC-97TM1; first compound 2.53 µM)?
Its relative viability is 0.209.

And the relative viability (LOU-NH91; first compound 0.08 µM)?
Its relative viability is 0.547.

What about the relative viability (LOU-NH91; first compound 0.253 µM) of the same compound?
The relative viability was 0.515.

And the relative viability (LOU-NH91; first compound 0.8 µM)?
The relative viability was 0.581.

What about the relative viability (LOU-NH91; first compound 2.53 µM) of the same compound?
The relative viability was 0.527.

What about the relative viability (LU99A; first compound 0.08 µM) of the same compound?
The relative viability was 0.375.

And the relative viability (LU99A; first compound 0.253 µM)?
The relative viability was 0.388.

And the relative viability (LU99A; first compound 0.8 µM)?
The relative viability was 0.442.

And the relative viability (LU99A; first compound 2.53 µM)?
The relative viability was 0.389.

What about the relative viability (LXF-289; first compound 0.08 µM) of the same compound?
The relative viability was 0.66.

What about the relative viability (LXF-289; first compound 0.253 µM) of the same compound?
The relative viability was 0.565.

What about the relative viability (LXF-289; first compound 0.8 µM) of the same compound?
Its relative viability is 0.571.

And the relative viability (LXF-289; first compound 2.53 µM)?
The relative viability was 0.682.

And the relative viability (NCI-H1395; first compound 0.08 µM)?
The relative viability was 0.762.

What about the relative viability (NCI-H1395; first compound 0.253 µM) of the same compound?
Its relative viability is 0.619.

And the relative viability (NCI-H1395; first compound 0.8 µM)?
Its relative viability is 0.609.

And the relative viability (NCI-H1395; first compound 2.53 µM)?
The relative viability was 0.65.

What about the relative viability (NCI-H1666; first compound 0.08 µM) of the same compound?
The relative viability was 0.607.

And the relative viability (NCI-H1666; first compound 0.253 µM)?
Its relative viability is 0.626.

What about the relative viability (NCI-H1666; first compound 0.8 µM) of the same compound?
The relative viability was 0.615.

And the relative viability (NCI-H1666; first compound 2.53 µM)?
Its relative viability is 0.609.

And the relative viability (NCI-H1755; first compound 0.08 µM)?
The relative viability was 0.418.

And the relative viability (NCI-H1755; first compound 0.253 µM)?
The relative viability was 0.443.

What about the relative viability (NCI-H1755; first compound 0.8 µM) of the same compound?
The relative viability was 0.446.

And the relative viability (NCI-H1755; first compound 2.53 µM)?
Its relative viability is 0.438.

What about the relative viability (NCI-H1793; first compound 0.08 µM) of the same compound?
Its relative viability is 0.336.

What about the relative viability (NCI-H1793; first compound 0.253 µM) of the same compound?
Its relative viability is 0.288.

And the relative viability (NCI-H1793; first compound 0.8 µM)?
The relative viability was 0.282.

What about the relative viability (NCI-H1793; first compound 2.53 µM) of the same compound?
Its relative viability is 0.386.

And the relative viability (NCI-H1915; first compound 0.08 µM)?
The relative viability was 0.547.

And the relative viability (NCI-H1915; first compound 0.8 µM)?
The relative viability was 0.571.

What about the relative viability (NCI-H1915; first compound 2.53 µM) of the same compound?
The relative viability was 0.601.

What about the relative viability (NCI-H1944; first compound 0.08 µM) of the same compound?
Its relative viability is 0.341.

What about the relative viability (NCI-H1944; first compound 0.8 µM) of the same compound?
Its relative viability is 0.366.

And the relative viability (NCI-H1944; first compound 2.53 µM)?
Its relative viability is 0.322.

What about the relative viability (NCI-H2023; first compound 0.08 µM) of the same compound?
Its relative viability is 0.41.

And the relative viability (NCI-H2023; first compound 0.253 µM)?
The relative viability was 0.344.

What about the relative viability (NCI-H2023; first compound 0.8 µM) of the same compound?
The relative viability was 0.387.

What about the relative viability (NCI-H2023; first compound 2.53 µM) of the same compound?
Its relative viability is 0.541.

And the relative viability (NCI-H2126; first compound 0.08 µM)?
Its relative viability is 0.369.

And the relative viability (NCI-H2126; first compound 0.253 µM)?
The relative viability was 0.355.

And the relative viability (NCI-H2126; first compound 0.8 µM)?
Its relative viability is 0.331.

And the relative viability (NCI-H2126; first compound 2.53 µM)?
The relative viability was 0.341.

And the relative viability (NCI-H2170; first compound 0.08 µM)?
The relative viability was 0.429.

What about the relative viability (NCI-H2170; first compound 0.8 µM) of the same compound?
The relative viability was 0.383.

And the relative viability (NCI-H2170; first compound 2.53 µM)?
Its relative viability is 0.371.

What about the relative viability (NCI-H23; first compound 0.08 µM) of the same compound?
The relative viability was 0.378.

And the relative viability (NCI-H23; first compound 0.253 µM)?
The relative viability was 0.49.

And the relative viability (NCI-H23; first compound 0.8 µM)?
Its relative viability is 0.515.

What about the relative viability (NCI-H23; first compound 2.53 µM) of the same compound?
Its relative viability is 0.616.

What about the relative viability (NCI-H322M; first compound 0.08 µM) of the same compound?
Its relative viability is 0.467.

And the relative viability (NCI-H322M; first compound 0.253 µM)?
Its relative viability is 0.553.

What about the relative viability (NCI-H322M; first compound 0.8 µM) of the same compound?
The relative viability was 0.477.

And the relative viability (NCI-H322M; first compound 2.53 µM)?
The relative viability was 0.588.

What about the relative viability (NCI-H441; first compound 0.08 µM) of the same compound?
Its relative viability is 0.224.

And the relative viability (NCI-H441; first compound 0.8 µM)?
The relative viability was 0.258.

And the relative viability (NCI-H441; first compound 2.53 µM)?
The relative viability was 0.185.

What about the relative viability (NCI-H460; first compound 0.08 µM) of the same compound?
Its relative viability is 0.154.

What about the relative viability (NCI-H460; first compound 0.253 µM) of the same compound?
The relative viability was 0.0849.

What about the relative viability (NCI-H460; first compound 0.8 µM) of the same compound?
Its relative viability is 0.135.

And the relative viability (NCI-H460; first compound 2.53 µM)?
The relative viability was 0.146.

And the relative viability (NCI-H650; first compound 0.08 µM)?
Its relative viability is 0.311.

What about the relative viability (NCI-H650; first compound 0.253 µM) of the same compound?
Its relative viability is 0.334.

And the relative viability (NCI-H650; first compound 0.8 µM)?
Its relative viability is 0.317.

What about the relative viability (NCI-H650; first compound 2.53 µM) of the same compound?
Its relative viability is 0.351.

What about the relative viability (PC-3 [JPC-3]; first compound 0.08 µM) of the same compound?
The relative viability was 0.533.

And the relative viability (PC-3 [JPC-3]; first compound 0.253 µM)?
Its relative viability is 0.488.

And the relative viability (PC-3 [JPC-3]; first compound 0.8 µM)?
The relative viability was 0.543.

And the relative viability (PC-3 [JPC-3]; first compound 2.53 µM)?
The relative viability was 0.503.

And the relative viability (SK-LU-1; first compound 0.08 µM)?
The relative viability was 0.417.

And the relative viability (SK-LU-1; first compound 0.253 µM)?
Its relative viability is 0.474.

What about the relative viability (SK-LU-1; first compound 0.8 µM) of the same compound?
The relative viability was 0.337.

What about the relative viability (SK-LU-1; first compound 2.53 µM) of the same compound?
Its relative viability is 0.524.
